In ChEMBL document CHEMBL4428031, “Verbascoside Inhibits Promastigote Growth and Arginase Activity of Leishmania amazonensis” (J Nat Prod, 2016) one finds Ki, EC50 and Activity data, which are given here for one compound.

By pKi is commonly meant the Ki on a negative log10 scale, so that one unit is a factor of ten. Usually pEC50 stands for the EC50 on a negative log10 scale, so that one unit is a factor of ten.

For one experiment, the target named is Arginase (Leishmania amazonensis, UniProt O96394). Description: Competitive inhibition of Leishmania amazonensis arginase assessed as inhibition constant for enzyme-inhibitor complex using L-arginine as substrate incubated for 15 mins by Dixon plot analysis.
Experiment [1] concerns Leishmania amazonensis. Nature of the experiment: Antileishmanial activity against Leishmania amazonensis MHOM/BR/1973/M2269 promastigotes assessed as reduction in cell viability incubated up to 72 hrs by trypan blue dye based Neubauer chamber method. Type of experiment: functional, organism-based. Particulars: MHOM/BR/1973/M2269, 72 h.
In experiment [2] the test system is Leishmania amazonensis. Description: Antileishmanial activity against Leishmania amazonensis MHOM/BR/1973/M2269 promastigotes assessed as reduction in cell viability at 100 uM after 72 hrs by trypan blue dye based Neubauer chamber method. The format is functional, organism-based.
In the next experiment the test system is Leishmania donovani. Nature of the experiment: Antileishmanial activity against Leishmania donovani axenic amastigotes after 72 hrs by alamar blue assay. Type of experiment: functional, organism-based. On the technique in general: Alamar Blue is a resazurin reagent that responds to reducing activity.

pEC50, pKi: −log10 of the molar value. Calls of active or inactive are those of the source. No cut-off for these calls is given here.

For `C[C@@H]1O[C@@H](O[C@@H]2[C@@H](O)[C@H](OCCc3ccc(O)c(O)c3)O[C@H](CO)[C@H]2OC(=O)/C=C/c2ccc(O)c(O)c2)[C@H](O)[C@H](O)[C@H]1O` [ACETOSIDE], the pKi at Arginase is 6.15. Besides, the pEC50 is 4.72 with Leishmania amazonensis [1] and 4.85 in the experiment on Leishmania donovani. Moreover, the result with Leishmania amazonensis [2] was Active.
